The values below come from PMC6318801 (European journal of medicinal chemistry, 2018).

The nature of data set [1]: Impact of human serum protein binding on inhibitory activity. In kind it is cell-based. The note with it: Figure S4.
Data set [2] concerns the target human IDO1 expressed endogenously in HeLa cells (Homo sapiens, UniProt P14902). As to the kind of experiment: Cell-based IDO1 inhibition assay.
The target in data set [3] is T1, mouse IDO2 expressed exogenously in T-Rex cells (Mus musculus, UniProt Q8R0V5).
T1 sequence (Q8R0V5 1-405): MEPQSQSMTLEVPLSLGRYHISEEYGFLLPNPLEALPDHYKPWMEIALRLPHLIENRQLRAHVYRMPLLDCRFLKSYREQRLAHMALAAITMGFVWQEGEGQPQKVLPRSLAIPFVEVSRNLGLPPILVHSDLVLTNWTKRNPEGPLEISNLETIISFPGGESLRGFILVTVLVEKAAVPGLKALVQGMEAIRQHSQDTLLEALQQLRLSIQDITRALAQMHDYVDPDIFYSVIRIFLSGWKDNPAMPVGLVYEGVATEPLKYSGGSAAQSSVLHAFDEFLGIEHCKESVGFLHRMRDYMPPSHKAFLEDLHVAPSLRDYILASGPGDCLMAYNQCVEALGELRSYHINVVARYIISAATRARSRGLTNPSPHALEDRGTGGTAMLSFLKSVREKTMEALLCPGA
As to the kind of experiment: Cell-based IDO2 inhibition assay. The note with it: for Greater potency for IDO1 and TDO over IDO2 (cell-based): cell-based IC50 ratio.

The target in data set [4] is human TDO expressed exogenously in T-Rex cells (Homo sapiens, UniProt P48775). As to the kind of experiment: Cell-based TDO inhibition assay.
human TDO expressed exogenously in T-Rex cells, sequence (P48775 whole entry): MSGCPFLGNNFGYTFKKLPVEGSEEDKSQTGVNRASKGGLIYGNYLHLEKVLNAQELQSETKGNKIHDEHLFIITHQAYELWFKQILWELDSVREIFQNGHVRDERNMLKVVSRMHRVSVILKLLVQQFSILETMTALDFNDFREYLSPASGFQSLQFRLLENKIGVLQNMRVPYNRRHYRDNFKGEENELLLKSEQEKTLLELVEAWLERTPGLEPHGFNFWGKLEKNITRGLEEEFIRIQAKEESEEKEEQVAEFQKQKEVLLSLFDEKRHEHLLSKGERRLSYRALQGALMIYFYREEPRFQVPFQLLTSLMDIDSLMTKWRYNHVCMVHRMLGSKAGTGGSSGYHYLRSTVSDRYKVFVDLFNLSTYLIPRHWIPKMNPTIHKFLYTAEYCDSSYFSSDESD
The next data set concerns the target TDO (Homo sapiens, UniProt P48775). As to the kind of experiment: Enzyme-based TDO inhibition assay.
For the next data set, the target named is IDO1 (Homo sapiens, UniProt P14902). In words: Enzyme-based IDO1 inhibition assay. The settings on record: for IDO1 % inhibition: isolated enzyme, 100 μM inhibitor.
IDO1, sequence (P14902 whole entry, species assumed): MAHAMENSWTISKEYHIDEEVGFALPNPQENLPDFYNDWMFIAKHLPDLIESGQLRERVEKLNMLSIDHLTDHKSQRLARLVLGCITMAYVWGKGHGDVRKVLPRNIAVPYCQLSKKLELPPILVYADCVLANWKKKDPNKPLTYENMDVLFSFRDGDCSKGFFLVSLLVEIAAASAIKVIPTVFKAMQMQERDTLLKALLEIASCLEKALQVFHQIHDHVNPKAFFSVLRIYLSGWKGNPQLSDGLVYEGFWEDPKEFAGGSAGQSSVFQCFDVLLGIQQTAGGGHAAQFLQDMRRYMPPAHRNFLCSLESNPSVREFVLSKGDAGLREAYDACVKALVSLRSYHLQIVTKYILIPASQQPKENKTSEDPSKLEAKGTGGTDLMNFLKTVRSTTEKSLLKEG
The target of a further data set is IDO2 (Homo sapiens, UniProt Q6ZQW0). As to the kind of experiment: Enzyme-based IDO2 inhibition assay.
IDO2, sequence (Q6ZQW0 whole entry): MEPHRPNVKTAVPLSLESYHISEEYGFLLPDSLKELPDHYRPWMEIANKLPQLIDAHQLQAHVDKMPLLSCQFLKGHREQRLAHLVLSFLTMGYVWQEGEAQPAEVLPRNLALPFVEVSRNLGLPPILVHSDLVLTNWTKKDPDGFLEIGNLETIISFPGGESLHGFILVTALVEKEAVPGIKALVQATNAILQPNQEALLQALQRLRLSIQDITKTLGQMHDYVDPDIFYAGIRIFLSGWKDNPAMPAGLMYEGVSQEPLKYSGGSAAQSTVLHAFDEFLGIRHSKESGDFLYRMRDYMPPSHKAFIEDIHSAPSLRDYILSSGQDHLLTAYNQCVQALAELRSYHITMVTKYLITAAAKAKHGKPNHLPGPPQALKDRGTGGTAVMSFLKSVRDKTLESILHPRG
Where [5] appears, read: read-out: TDO IC50 (cell-based), human TDO in T-Rex cells, racemic mixtures.
Where [6] appears, read: read-out: IDO1 IC50 (cell-based), HeLa cells, racemic mixtures.
[7] abbreviates: read-out: IDO2 IC50 (cell-based), mouse IDO2 in T-Rex cells, racemic mixtures.
The mark [8] stands for this setting: isolated enzyme, 100 μM inhibitor.

Structures can show the parent of a compound that is named as a salt. Where two headings read alike, the source gives them in different places.

TDO, sequence (P48775 whole entry, species assumed): as the sequence (P48775 whole entry) above
human IDO1 expressed endogenously in HeLa cells, sequence (P14902 whole entry): as the sequence (P14902 whole entry, species assumed) above

`Cl.NOC(c1ccccc1)c1cc(Cl)cc(Cl)c1` (stereo not drawn) [Compound 2, O-(3,5-Dichloro-α-phenylbenzyl)hydroxylamine hydrochloride]: in data set [1], the “Effect of human serum protein binding on inhibitory activity” value is on record as “relatively unaffected”.
Turning to `Cl.NOC(CCCC(=O)Nc1ccccc1)c1cccc(Cl)c1` (centres unmarked) [Compound 5, 5-(Aminooxy)-5-(3-chlorophenyl)-N-phenylpentanamide hydrochlorie], the “Selectivity for IDO1 over IDO2 and TDO (cell-based)” value in data set [2] (cell-based IC50 ratio) is “more than 20 fold”.
On to `Cl.NOC(c1ccccc1)c1ccc(Cl)cc1Cl` (centres unmarked) [Compound 6, O-(2,4-Dichlorophenylbenzyl)hydroxylamine hydrochloride], for which, in data set [1], the “Effect of human serum protein binding on inhibitory activity” value is “substantial reduction in inhibitory activity”.
With `Cl.NOC(c1ccccc1)c1ccccc1F` (stereo not drawn) [Compound 16, O-(2-Fluoro-α-phenylbenzyl)hydroxylamine hydrochloride], the “Greater potency for IDO1 and TDO over IDO2 (cell-based)” value in data set [3] was “roughly 10 fold”.
With `NOC(CCc1ccccc1)c1ccccc1` (centres unmarked) [Compound 17, O-(1,3-diphenylpropyl)hydroxylamine hydrochloride], the IC50 (usually the concentration at which inhibition is half-maximal) is 49.7 µM in data set [4], 14.7 µM in data set [2], 16 µM on IDO1 and 19.3 µM in data set [3]. In addition, the inhibition (commonly the relative decrease from the control value, in per cent) at 100 µM was found to be 89.9% at TDO (read-out: TDO % inhibition) and 76% on IDO2 (read-out: IDO2 % inhibition).
Turning to `Cl.NOC(c1ccccc1)c1ccsc1` (centres unmarked) [Compound 21, O-(phenyl(thiophen-3-yl)methyl)hydroxylamine hydrochloride], in data set [3], the “Greater potency for IDO1 and TDO over IDO2 (cell-based)” value was “roughly 10 fold”.
Consider `NOC(c1ccccc1)c1ccc(O)cc1` (stereo not drawn) [Compound 25, O-(4-Hydroxy-α-phenyl)-benzyl hydroxylamine hydrochloride], for which the inhibition at 200 µM on IDO1 (read-out: IDO1 % inhibition, isolated enzyme, 200 μM inhibitor) was found to be 18%.
In the case of “O-(2-Methoxy-α-phenylbenzyl)hydroxylamine hydrochloride [Compound 20]”, the IC50 in data set [4] (setting [5]) was 48.8 µM; in data set [2] (setting [6]), 1.11 µM; in data set [3] (setting [7]) it was 16.5 µM. The same compound had an IDO2 % inhibition at IDO2 (setting [8]) of 80.0%.
As to “O-(3-Trifluoromethyl-α-phenylbenzyl)hydroxylamine hydrochloride [Compound 26]”, the IC50 came to 13.6 µM in data set [4] (setting [5]); 1.73 µM in data set [2] (setting [6]); 12 µM on TDO (read-out: TDO IC50, isolated enzyme, racemic mixtures); 24.7 µM in data set [3] (setting [7]). At IDO1, this compound had an IDO1 % inhibition of 18%.
For “O-[4-Chloro-α-(2’-methyl,4’-methoxyphenyl)benzenemethyl]hydroxylamine hydrochloride [Compound 23]”, the figures for the IC50 in data set [4] (setting [5]), in data set [2] (setting [6]) and in data set [3] (setting [7]) were 19.1 µM, 1.76 µM and 8.77 µM, respectively. The TDO % inhibition on TDO (setting [8]) turned out to be 66%. At IDO1, this compound came in with an IDO1 % inhibition of 85%.
